Measured values from patent US11236055B2 (Venenum Biodesign, LLC, priority 2016, dated 2022).

Assays:
[1] = system: GLP-1 levels in the blood of male C57BL/6NTac mice; assay: In vivo mouse GLP-1 study, single oral dose; details: 10 mg/kg oral, 4 h post-dose, sitagliptin 3 mg/kg pre-dose
Procedure: In Vivo Mouse GLP-1 Study
12-14 week old male C57BL/6NTac (Taconic) mice were divided into experimental groups (n=6) by randomizing mice based on pre-fasting body weight and then were fasted overnight. On experiment day, all mice were dosed with 3 mg/kg sitagliptin via oral gavage exactly 1 hour before oral gavage dosing of vehicle (0.5% carboxymethylcellulose (medium viscosity)+0.25% Tween-80) or 10 mg/kg compound in vehicle. Four (4) hours following the administration of compound, blood was collected via cardiac puncture. For the GLP-1 assay, 200-250 μL of blood was placed in an EDTA K^2+ tube containing 5 μL of 40 mg/mL aprotinin (Sigma A1153) and 1 μL of 10 mM sitagliptin (Sigma S8576) and plasma was separated by centrifugation. Plasma samples were stored at −20° C. until analysis. The active form of GLP-1 [GLP-1 (7-36) amide] was analyzed using Meso Scale Discovery System according to the manufacturer's directions (item number K150HYC). Values of p<0.05 are considered statistically significant.
The active GLP-1 assay results from the mice in vivo study are shown in Table 36 and FIG. 1, expressed as fold change over vehicle.

[2] = system: Mouse STC-1 cells; assay: STC-1 GLP-1 assay; type: cell-based; details: GLP-1 secretion, 2 h, coded A-C, read-out: Mouse STC-1 HTRF GLP-1 Activity (EC50)
Method in brief: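 Cells were seeded two days before in charcoal-stripped FBS medium, then exposed 2 h at 37 °C to compounds (12-point half-log series) in HBSS with protease inhibitors, DPP-IV inhibitor and 0.1% fatty acid free BSA. Active GLP-1 in supernatants measured by HTRF; EC50 derived.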

[3] = Pharmacokinetic profile in mice; type: in vivo; details: mouse; fasted male Hilltop mice, 10 mg/kg oral gavage, plasma, mean of three mice
Method in brief: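 Fasted 8-week-old male Hilltop mice received 10 mg/kg by oral gavage in 20% PEG400/80% 0.5% CMC + 0.25% Tween-80. Plasma was sampled at 0–4 h, with at most 3 draws per mouse, and measured by LC-MS/MS (0.1–500 ng/mL standards). Cmax and AUC were derived non-compartmentally; values are means of three mice.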

Row | SMILES | Fold Increase (active GLP-1, fold change over vehicle) [1] | EC50 [2] [nM] | Cmax [3] [ng/mL]
1 | CCc1cnccc1-c1cccc(C(C)(C)N(CCCC(=O)NCCS(=O)(=O)O)S(=O)(=O)c2ccccc2C(F)(F)F)c1 [Compound 20, 2-(4-(N-(2-(3-(3-ethylpyridin-4-yl)phenyl)propan-2-yl)-2-(trifluoromethyl)-phenylsulfonamido)butanamido)ethanesulfonic acid] | 1.0 | < 100 | 5
2 | Cc1cnccc1-c1cccc(C(C)(C)N(CCCC(=O)NCCS(=O)(=O)O)S(=O)(=O)c2ccccc2C(F)(F)F)c1 [Compound 20AA, 2-(4-(N-(2-(3-(3-methylpyridin-4-yl)phenyl)propan-2-yl)-2-(trifluoromethyl)phenylsulfonamido)butanamido)ethanesulfonic acid] | 3.3 | 100 to 999 | 7.2
3 | CCc1cnccc1-c1cccc(C(C)(C)N(CCCC(=O)NCCS(=O)(=O)O)S(=O)(=O)c2cccc(Cl)c2C)c1 [Compound 20AC, 2-(4-(3-chloro-N-(2-(3-(3-ethylpyridin-4-yl)phenyl)propan-2-yl)-2-methylphenylsulfonamido)butanamido)ethanesulfonic acid] | 1.2 | 100 to 999 | 7.8
4 | Cc1cnccc1-c1cccc(C(C)(C)N(CCCC(=O)NCCCS(=O)(=O)O)S(=O)(=O)c2cccc(Cl)c2C)c1 [Compound 20AD, 3-(4-(3-chloro-2-methyl-N-(2-(3-(3-methylpyridin-4-yl)phenyl)propan-2-yl)phenylsulfonamido)butanamido)propane-1-sulfonic acid] | 1.9 |  | 2.5
5 | Cc1cnccc1-c1cccc(C(C)(C)N(CCCC(=O)NC[C@@H](O)[C@H](O)[C@@H](O)[C@@H](O)CO)S(=O)(=O)c2cccc(Cl)c2C)c1 [Compound 20AF, 4-(3-chloro-2-methyl-N-(2-(3-(3-methylpyridin-4-yl)phenyl)propan-2-yl)phenylsulfonamido)-N-((2R,3S,4S,5S)-2,3,4,5,6-pentahydroxyhexyl)butanamide] | 0.8 | 100 to 999 | 5.2
6 | CCc1cnccc1-c1cccc([C@H](C)N(CCCC(=O)NCCCS(=O)(=O)O)S(=O)(=O)c2cccc(Cl)c2C)c1 [Compound 20AM, (S)-3-(4-(3-chloro-N-(1-(3-(3-ethylpyridin-4-yl)phenyl)ethyl)-2-methylphenylsulfonamido)butanamido)propane-1-sulfonic acid] | 2.3 | 100 to 999 | 0.9
7 | Cc1cnccc1-c1cccc(C(C)(C)N(CCCC(=O)NCCS(=O)(=O)NCC(=O)O)S(=O)(=O)c2cccc(Cl)c2C)c1 [Compound 20AW, (4-(3-chloro-2-methyl-N-(2-(3-(3-methylpyridin-4-yl)phenyl)propan-2-yl)phenylsulfonamido)-N-butanamidoethylsulfonamido)acetic acid] | 1.1 |  | 2.8
8 | CCc1cnccc1-c1cccc([C@H](C)N(CCCC(=O)NCCS(=O)(=O)O)S(=O)(=O)c2ccccc2C(F)(F)F)c1 [Compound 20BF, (S)-2-(4-(N-(1-(3-(3-ethylpyridin-4-yl)phenyl)ethyl)-2-(trifluoromethyl)phenylsulfonamido)butanamido)ethanesulfonic acid] | 2.9 | 100 to 999 | 0.8
9 | CCc1cnccc1-c1cccc([C@H](C)N(CCCC(=O)NCCS(=O)(=O)NCC(=O)O)S(=O)(=O)c2ccccc2C(F)(F)F)c1 [Compound 20BG] | 4.4 | 100 to 999 | 0.3
10 | Cc1cnccc1-c1cccc([C@H](C)N(CCCC(=O)NCCS(=O)(=O)NCCCC(=O)O)S(=O)(=O)c2ccccc2C(F)(F)F)c1 [Compound 20BK] | 1.3 | 1000 to 30000 | 0.4
11 | Cc1cnccc1-c1cccc([C@H](C)N(CCCCC(=O)NCCS(=O)(=O)NCC(=O)O)S(=O)(=O)c2ccccc2C(F)(F)F)c1 [Compound 20BL, (S) 2-(4-(N-(1-(3-(3-methylpyridin-4-yl)phenyl)ethyl)-2-(trifluoromethyl)phenylsulfonamidopentanamido)ethylsulfonamido)acetic acid] | 2.1 | 1000 to 30000 | 1.2
12 | Cc1cnccc1-c1cccc(C(C)(C)N(CCCC(=O)NCC(=O)O)S(=O)(=O)c2cccc(Cl)c2C)c1 [Compound 21AB, 2-(4-(3-chloro-2-methyl-N-(2-(3-(3-methylpyridin-4-yl)phenyl)propan-2-yl)phenylsulfonamido)butanamido)acetic acid] | 3.0 |  | 19.4
13 | CCc1cnccc1-c1cccc([C@H](C)N(CCCC(=O)NCCS(=O)(=O)O)S(=O)(=O)c2cccc(Cl)c2C)c1 [Compound 21AQ, (S)-2-(4-(3-chloro-N-(1-(3-(3-ethylpyridin-4-yl)phenyl)ethyl)-2-methylphenylsulfonamido)butanamido)ethanesulfonic acid] | 2.0 | 100 to 999 | 4.2
14 | CCc1cnccc1-c1cccc([C@H](C)N(CCCC(=O)NCCS(=O)(=O)NCC(=O)O)S(=O)(=O)c2cccc(Cl)c2C)c1 [Compound 21AT, (S) 2-(3-(4-(3-chloro-2-methyl-N-(1-(3-(3-ethylpyridin-4-yl)phenyl)ethyl)phenylsulfonamido)butanamido)ethylsulfonamido)acetic acid] | 4.2 | 100 to 999 | 1.6
15 | CCc1cnccc1-c1cccc(C2CN(C(=O)CS(=O)(=O)O)CCN2S(=O)(=O)c2cccc(Cl)c2C)c1 (centres unmarked) [Compound 49, 2-(4-((3-Chloro-2-methylphenyl)sulfonyl)-3-(3-(3-ethylpyridin-4-yl)phenyl)piperazin-1-yl)-2-oxoethanesulfonic acid] |  | 100 to 999 | 2.1
